We go through one compound from paper PMC4045772, “Structure of the BTB Domain of Keap1 and Its Interaction with the Triterpenoid Antagonist CDDO” (PLoS ONE, 2014).

For the assay, the target named is T1, Keap1 (Homo sapiens, UniProt Q14145).
T1 construct: BTB plus part of BACK domain, residues 35-235, uncleaved N-terminal His-tag, E. coli BL21(DE3); AlphaScreen displacement of Cul3 (Cul3/Rbx1)
Put plainly: X-ray co-crystal structure ([…] Å) of the covalent complex; AlphaScreen inhibition of Cul3 binding with purified Keap1 […]. (In general: Alpha assays give light when donor and acceptor beads are brought close together.)

SMILES strings stand for the structures. Where only a bound is given, the exact number is not on record here.

T1 sequence (P62877 whole entry, the tested form may be a part): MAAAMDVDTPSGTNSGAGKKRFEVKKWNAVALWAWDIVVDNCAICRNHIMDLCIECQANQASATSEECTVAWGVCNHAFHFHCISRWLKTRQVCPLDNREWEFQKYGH
T1 sequence (Q14145 35-235): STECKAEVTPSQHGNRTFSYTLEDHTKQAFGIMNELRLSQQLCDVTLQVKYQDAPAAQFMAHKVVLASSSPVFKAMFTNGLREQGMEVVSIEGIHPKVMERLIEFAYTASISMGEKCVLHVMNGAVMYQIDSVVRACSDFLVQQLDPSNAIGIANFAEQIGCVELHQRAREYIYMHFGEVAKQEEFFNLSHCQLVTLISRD
T1 sequence (Q13618 2-768, further chain): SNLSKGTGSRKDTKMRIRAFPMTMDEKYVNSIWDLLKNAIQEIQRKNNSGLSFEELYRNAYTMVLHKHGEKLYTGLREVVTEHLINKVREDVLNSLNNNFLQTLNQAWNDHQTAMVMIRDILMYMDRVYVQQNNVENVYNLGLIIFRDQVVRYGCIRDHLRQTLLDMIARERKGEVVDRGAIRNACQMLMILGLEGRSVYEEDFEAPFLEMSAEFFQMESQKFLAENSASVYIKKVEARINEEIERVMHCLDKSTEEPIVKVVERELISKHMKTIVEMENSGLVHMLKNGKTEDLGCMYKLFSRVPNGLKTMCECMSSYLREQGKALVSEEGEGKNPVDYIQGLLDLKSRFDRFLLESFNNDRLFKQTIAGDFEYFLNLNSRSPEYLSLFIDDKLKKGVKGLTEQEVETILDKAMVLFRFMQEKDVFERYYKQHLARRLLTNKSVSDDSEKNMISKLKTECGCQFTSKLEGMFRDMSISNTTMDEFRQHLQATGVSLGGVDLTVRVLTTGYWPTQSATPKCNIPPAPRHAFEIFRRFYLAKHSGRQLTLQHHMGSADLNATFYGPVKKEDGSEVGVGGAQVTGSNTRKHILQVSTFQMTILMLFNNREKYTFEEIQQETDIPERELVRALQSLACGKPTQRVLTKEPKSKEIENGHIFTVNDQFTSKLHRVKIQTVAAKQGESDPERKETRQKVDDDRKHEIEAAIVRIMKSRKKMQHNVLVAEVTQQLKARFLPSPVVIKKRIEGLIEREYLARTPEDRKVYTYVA

Regarding `CC1(C)CC[C@]2(C(=O)O)CC[C@]3(C)[C@H](C(=O)C=C4[C@@]5(C)C=C(C#N)C(=O)C(C)(C)[C@@H]5CC[C@]43C)[C@@H]2C1` [CDDO, 2-cyano-3,12-dioxooleana-1,9-dien-28-oic-acid], the IC50 (as a rule, the concentration that inhibits the measured activity by half) was less than 100 nM.
